Patent publication US9737478B2, “Treatment of malaria” (National Institutes of Health (NIH), U.S. Dept. of Health …, priority 2009, dated 2017)

Legend:
[1] = tested on: PbA-infected mice with clinical CM; assay: Intravital microscopy of pial vessels (closed cranial window) in PbA-infected mice with clinical CM; type: in vivo; details: nimodipine 4 mg/kg IP, 30 minutes after injection
Source text: Briefly, mice were anesthetized with ketamine-xylazine, the head held on a stereotaxic frame, the scalp cut off and a 3-4 mm diameter skull opening was made in the left parietal bone using a surgical drill. The exposed area was covered with a 5 mm glass cover slip glued with dental acrylic. Carprofen and ampicillin were given for 3-5 days to prevent pain, inflammation and infection. Two weeks after surgery, mice were lightly anesthetized with isoflurane (4% for induction, 1-2% for maintenance) and held on a stereotaxic frame. A panoramic picture of the window was taken and then mice were transferred to an intravital microscope stage (customized McBain, San Diego, Calif.). Body temperature was maintained using a heating pad. […] Measurements of 6-10 pial venules (diameter range: 22-80 μm, velocity range: 2-4 mm/s) and 2-6 pial arterioles (diameter range: 18-70 μm, velocity range: 3-6 mm/s) were performed in each animal, and blood flow (Q) in each individual vessel was calculated using the equation: Q=V×(D/2)2.
The next day mice were inoculated intraperitoneally with 1×10^6 PbA-GFP pRBC. The intravital microscopy procedure was repeated daily from day 4 of infection until the mice died or were euthanized. Non-infected control mice were submitted to the same procedures. […]

[2] = tested on: Plasmodium berghei ANKA (PbA); assay: Treatment of PbA-infected mice presenting clinical cerebral malaria (survival, motor score, parasitemia); type: in vivo, C57B1/6 mice; details: for survival: mice with CM
Procedure: Eight to 10-week old C57B1/6 mice (Jackson Laboratories, ME) were inoculated intraperitoneally with 1×10^6 Plasmodium berghei ANKA (PbA) parasites expressing the GFP protein (obtained from MR4-NIH, deposited by C J Anders and A Waters). Parasitemia, body weight and rectal temperature were checked daily from day 4. […] Five tests were performed: transfer arousal, locomotor activity, tail elevation, wire maneuver and righting reflex. For each test, mice received an individual score, and the sum of scores was used to create a composite score.
PbA-infected mice presenting poor righting reflex, hypothermia and/or other clinical signs of neurological involvement such as ataxia, limb paralysis, seizures and/or roll-over were treated with artemether (Artesiane, Dafra Pharma, Belgium, a kind gift of Dr Alberto Moreno, Emory University, Atlanta, Ga.) given IP at 50 mg/kg, in combination with nimodipine (Sigma, St Louis, Mo.) or vehicle (ethanol:polyethyleneglycol (PEG) 400:saline in 1:1:8 v/v). Nimodipine was dissolved in ethanol (EMD, N.J.), dispersed with polyethyleneglycol 400 (PEG, Sigma) and then saline was added (1:1:8 v/v) and mixed thoroughly. This solution was administered intraperitoneally in three different doses: 1.3 mg/kg, 4 mg/kg and 12 mg/kg. […] Parasitemia, motor behavior and rectal temperature were checked at each timepoint and daily afterwards. After treatment, parasitemia was checked by microscopical examination of Giemsa-stained blood smears to differentiate viable from dead parasites.

Compound	increase in arteriolar blood flow [1]	survival ([2]; adjunctive nimodipine at 4 and 12 mg/kg IP at 0, 12, 24, 36 h with artemether 50 mg/kg IP daily for 5 days)	survival ([2]; artemether 50 mg/kg IP daily for 5 days plus vehicle) [%]	deaths occurring in the first 36 hours ([2]; vehicle-treated group (artemether plus vehicle)) [%]
COCCOC(=O)C1=C(C)NC(C)=C(C(=O)OC(C)C)C1c1cccc([N+](=O)[O-])c1 (stereo not shown) [nimodipine]	about 50%	60-66.6%		
CO[C@H]1O[C@@H]2O[C@@]3(C)CC[C@H]4[C@H](C)CC[C@@H]([C@H]1C)[C@@]24OO3 [artemether]			32.2	95.2
